Data reported in paper PMC8151276, “An Integrated Approach toward NanoBRET Tracers for Analysis of GPCR Ligand Engagement” (Molecules, 2021).

Molecular target: T1, FPR2 (Homo sapiens, UniProt P25090)
T1 construct: purchased Promega (in-house HiBiT-GPCR construct library, NanoBRET)
T1 sequence (P25090 1-351): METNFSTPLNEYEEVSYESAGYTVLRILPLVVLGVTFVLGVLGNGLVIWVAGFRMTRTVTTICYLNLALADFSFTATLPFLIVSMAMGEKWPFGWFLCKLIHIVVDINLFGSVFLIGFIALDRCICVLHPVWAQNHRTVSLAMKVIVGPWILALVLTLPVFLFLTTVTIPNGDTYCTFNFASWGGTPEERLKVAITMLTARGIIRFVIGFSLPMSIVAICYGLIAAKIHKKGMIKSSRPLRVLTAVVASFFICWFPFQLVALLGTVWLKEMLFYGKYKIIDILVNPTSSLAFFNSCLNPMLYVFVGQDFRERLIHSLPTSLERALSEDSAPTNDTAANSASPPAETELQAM
Assay: NanoBRET screen HiBiT-FPR2 in HEK293
Type: binding
Protocol: Each tracer candidate was screened across the entire library of HiBiT-GPCR constructs using NanoBRET as the detection modality. As depicted in Figure 4A, the specificity of interactions was evaluated through decrease in BRET due to competitive displacement of a bound tracer by excess parental compound. Each tracer was analyzed for binding to each HiBiT-GPCR fusion in the absence and in the presence of competing parental compound. Briefly, HEK293 cells were transfected with HiBiT-GPCR constructs diluted into promoterless DNA to reduce expression and maximize translocation to the cell surface. Each tracer candidate was then screened at concentrations of 1 μM and 0.1 μM across cells expressing these fusions. Cells were treated for 1.5 h with tracer either alone or in the presence of 20 μM competing parental compound (i.e., control). BRET was measured upon addition of purified LgBiT and subsequent complementation with HiBiT genetically fused to a GPCR. The specificity of interactions was assessed through a decrease in BRET signal due to competitive displacement of the bound tracer. To further gauge the robustness of these interactions, the fold response over the control (i.e., BRETtracer/BRETcontrol) was calculated. We chose a 1.5-fold response, which translates to ≥7-fold signal over noise as the minimal threshold required to score an interaction as positive. […]. Below we highlight the screening results obtained for our exemplary fluorescent tracers based on Clozapine, Amitriptyline and AZD1283.
HiBiT-GPCR DNA constructs were diluted in 10 mM Tris pH 8 to a final concentration of 0.01 μg/μL, arrayed in 96-well plates and stored at −20 °C. For transfection, HEK293 cells were suspended in Opti-MEM (without phenol red) supplemented with 2% fetal bovine serum (Seradigm) and 100 units/mL penicillin–streptomycin (Gibco) at a final concentration of 220,000 cells/mL and dispensed into white 96-well plates at 90 μL/well. Subsequent transfections and screens were carried using an Agilent Bravo Automated Liquid Handling Platform. First, the 96-well HiBiT DNA arrays were diluted 25-fold in Opti-MEM (without serum or phenol red) to a final concentration of 0.0004 μg/μL and 20 μL of the diluted DNAs were transferred into new 96-well plates. Next, promoterless carrier DNA (1 μg/μL) was diluted 25-fold (0.04 μg/μL) and then dispensed into the diluted arrays at 20 μL/well. Following brief mixing, Viafect transfection reagent (Promega) diluted 16-fold into Opti-MEM was dispensed into the plates at 40 μL/well. After mixing by pipetting, plates were incubated for 10 min on the pipetting station deck. The DNA-transfection reagent complexes were then added to plates containing cells. To facilitate the screen, 10 μL of DNA-transfection reagent complexes were added in duplicates to the top 4 and bottom 4 rows, resulting in two identical 48-well arrays per plate. Plates with transfected cells were incubated for 18–20 h at 37 °C/5% CO2. A screen of each tracer across the entire library using two different concentrations requires duplicate plates of transfected cells. Depending on the number of tracers being screened, transfections can be scaled up using the same ratios. The next day, for each tracer, four 20× screening solutions in tracer dilution buffer (Promega) were prepared: two duplicates at final concentration of 20 μM and two duplicates at a final concentration of 2 μM. A competing unmodified compound was added to one of each duplicate at a final concentration of 400 μM. The four resulting solutions were diluted 4-fold in Opti-MEM without serum or phenol red to generate 5× solutions (5 µM and 0.5 µM tracer +/− 100 μM competing compound). To screen the library, a BioTek MultiFlo FX liquid dispenser was used to dispense 22.5 µL of tracer solution to the top 4 rows and 22.5 µL tracer + competing compound solution to the 4 bottom rows. Plates were briefly mixed on an orbital shaker and incubated for 1.5 h at room temperature. […]

Row | Compound | NanoBRET Fold Response (FPR2, tracer 0.1μM) | NanoBRET Fold Response (FPR2, tracer 1μM) | further results
1 | O=C(CCOCCOCCOCCOCCNC(=O)CCc1ccc2n1[B-](F)(F)[N+]1=C(c3ccc[nH]3)C=CC1=C2)NCCCN1CCN(C2=Nc3ccccc3Oc3ccc(Cl)cc32)CC1 [Loxapine-a-2-NB590] | 0.81 | 0.85 | –
2 | CCCn1c(=O)c2[nH]c(-c3ccc(OCC(=O)NCCNC(=O)CCOCCNC(=O)c4ccc(CNC(=O)CCc5ccc6n5[B-](F)(F)[N+]5=C(c7ccc[nH]7)C=CC5=C6)cc4)cc3)nc2n(CCC)c1=O [XAC-3-NB590] | 0.89 | 0.95 | –
3 | CN(C)CCC=C1c2ccccc2CCc2ccc(C(=O)NCCNC(=O)CCOCCOCCOCCOCCNC(=O)CCc3ccc4n3[B-](F)(F)[N+]3=C(c5ccc[nH]5)C=CC3=C4)cc21 [Amitriptyline-a-2-NB590] | – | – | NanoBRET Fold Response (tracer at 0.1μM): 0.96; NanoBRET Fold Response (tracer at 1μM): 1.05
4 | COc1ccccc1N1CCN(CCCCN2C(=O)c3ccc(CNC(=O)CCOCCOCCOCCOCCNC(=O)CCc4ccc5n4[B-](F)(F)[N+]4=C(c6ccc[nH]6)C=CC4=C5)cc3C2=O)CC1 [NAN-190-2-NB590] | 0.56 | 1.20 | –
5 | O=C(CCc1ccc2n1[B-](F)(F)[N+]1=C(c3ccc[nH]3)C=CC1=C2)NCc1ccc(C(=O)NCCOCCOCCNCC(O)COc2cccc3ccccc23)cc1 (stereo not drawn) [Propranolol-3-NB590] | – | – | NanoBRET Fold Response (FPR2, 0.1μM): 1.02; NanoBRET Fold Response (FPR2, 1μM): 1.12
6 | COc1ccccc1N1CCN(CCCCN2C(=O)c3ccc(CNC(=O)CCOCCNC(=O)c4ccc(CNC(=O)CCc5ccc6n5[B-](F)(F)[N+]5=C(c7ccc[nH]7)C=CC5=C6)cc4)cc3C2=O)CC1 [NAN-190-3-NB590] | 1.35 | 0.77 | –
7 | O=C(CCc1ccc2n1[B-](F)(F)[N+]1=C(c3ccc[nH]3)C=CC1=C2)NCc1ccc(C(=O)NCCOCCC(=O)N[C@@H]2CC[C@@]3(O)[C@H]4Cc5ccc(O)c6c5[C@@]3(CCN4CC3CC3)[C@H]2O6)cc1 [Naltrexone-3-NB590] | 0.87 | 0.66 | –
8 | CCOC(=O)c1cc(C#N)c(N2CCC(C(=O)NS(=O)(=O)Cc3ccccc3/C=C/C(=O)NCCNC(=O)CCc3ccc4n3[B-](F)(F)[N+]3=C(c5ccc[nH]5)C=CC3=C4)CC2)nc1C [AZD1283-1-NB590] | – | – | NanoBRET Fold Response (FPR2, 0.1μM): 0.99; NanoBRET Fold Response (FPR2, 1μM): 1.04
9 | COc1ccc2[nH]c(-c3ccc(CNC(=O)CCOCCOCCOCCOCCNC(=O)CCc4ccc5n4[B-](F)(F)[N+]4=C(c6ccc[nH]6)C=CC4=C5)cc3)c(CCNC(C)=O)c2n1 [AzomelatoninICO9-2-NB590] | – | – | NanoBRET Fold Response (0.1μM tracer): 0.74; NanoBRET Fold Response (1μM tracer): 1.09
10 | CC(C)N(CC[C@H](c1ccccc1)c1cc(CCNC(=O)CCOCCOCCOCCOCCNC(=O)CCc2ccc3n2[B-](F)(F)[N+]2=C(c4ccc[nH]4)C=CC2=C3)ccc1O)C(C)C [Tolterodine-2-NB590] | 1.07 | 0.71 | –
11 | CN1CCN(C2=Nc3cc(Cl)ccc3N(CC(=O)NCCOCCOCCOCCOCCNC(=O)CCc3ccc4n3[B-](F)(F)[N+]3=C(c5ccc[nH]5)C=CC3=C4)c3ccccc32)CC1 [Clozapine-c-2-NB590] | – | – | NanoBRET Fold Response (FPR2, 0.1μM tracer): 1.00; NanoBRET Fold Response (FPR2, 1μM tracer): 0.89
12 | N#CN=C(NCCCOc1cccc(CN2CCCCC2)c1)NCCNC(=O)CCOCCOCCOCCOCCNC(=O)CCc1ccc2n1[B-](F)(F)[N+]1=C(c3ccc[nH]3)C=CC1=C2 [Aminopotentidine-2-NB590] | 0.95 | 1.10 | –
13 | COc1ccc2c(n1)c(CCNC(C)=O)cn2CCNC(=O)CCc1ccc2n1[B-](F)(F)[N+]1=C(c3ccc[nH]3)C=CC1=C2 [Azamelatonin-1-NB590] | – | – | NanoBRET Fold Response (0.1μM tracer): 0.96; NanoBRET Fold Response (1μM tracer): 1.50
14 | CC(C)N(CC[C@H](c1ccccc1)c1cc(CCNC(=O)c2ccc(CNC(=O)CCc3ccc4n3[B-](F)(F)[N+]3=C(c5ccc[nH]5)C=CC3=C4)cc2)ccc1O)C(C)C [Tolterodine-BZ-NB590] | 0.95 | 0.95 | –
15 | O=C(CCc1ccc2n1[B-](F)(F)[N+]1=C(c3ccc[nH]3)C=CC1=C2)NCCOCCOCCNC(=O)OCCOCCN1CCN(C2=Nc3ccccc3Sc3ccccc32)CC1 [Quetiapine-a-2-NB590] | 1.06 | 0.82 | –
16 | Cc1cc2c(s1)Nc1ccccc1N=C2N1CCN(CCCNC(=O)CCOCCOCCOCCOCCNC(=O)CCc2ccc3n2[B-](F)(F)[N+]2=C(c4ccc[nH]4)C=CC2=C3)CC1 [Olanzapine-a-2-NB590] | 0.70 | 0.80 | –
17 | CN(C)CCC=C1c2ccccc2CCc2ccc(C(=O)NCCNC(=O)CCOCCOCCOCCOCCNC(=O)CCc3ccc4n3[B-](F)(F)[N+]3=C(c5ccc[nH]5)C=CC3=C4)cc21 [Amitriptyline-b-2-NB590] | – | – | NanoBRET Fold Response (tracer at 0.1μM, listed as amitriptyline-b-2-NB590): 0.88; NanoBRET Fold Response (tracer at 1μM): 0.99
18 | O=C(CCOCCOCCOCCOCCNC(=O)CCc1ccc2n1[B-](F)(F)[N+]1=C(c3ccc[nH]3)C=CC1=C2)NCCCN1CCN(C2=Nc3cc(Cl)ccc3Nc3ccccc32)CC1 [Clozapine-a-2-NB590] | – | – | NanoBRET Fold Response (FPR2, 0.1μM tracer): 0.91; NanoBRET Fold Response (FPR2, 1μM tracer): 1.34
19 | CN1CCN(C2=Nc3cc(Cl)ccc3Nc3ccc(CNC(=O)CCOCCOCCOCCOCCNC(=O)CCc4ccc5n4[B-](F)(F)[N+]4=C(c6ccc[nH]6)C=CC4=C5)cc32)CC1 [Clozapine-b-2-NB590] | – | – | NanoBRET Fold Response (FPR2, 0.1μM tracer): 0.78
20 | Cc1nc2n(c(=O)c1CCN1CCC(c3noc4cc(F)ccc34)CC1)CCCC2OC(=O)NCCOCCOCCOCCOCCNC(=O)CCc1ccc2n1[B-](F)(F)[N+]1=C(c3ccc[nH]3)C=CC1=C2 (stereo not drawn) [Risperidone-2-NB590] | 0.94 | 0.95 | –
